Reference: BindingDB's records for doi:10.1021/acs.jmedchem.8b01200 (Fuji Research Park, R&D Division, 2018)

Test: Agonist activity at PPARgamma in human MKN45 cells assessed as cell differentiation after 5 days by Hoechst 33342 staining-based assay

- EC50: > 500 nM
Compound: CCCCCS(=O)(=O)NC(=O)c1ccc2nc(C)n(Cc3ccc(Cl)cc3Cl)c2c1 [ATx08-001]
